One test concerns Sup-B15. Kind of test: MTT growth inhibition, Sup-B15 cells, 72 h. Type of test: cell-based, human. The method, then:
(§1) 5000 well-grown leukemia cells or normal human blood cells were taken and seeded into wells of a 96-well cell culture plate. The medium was 1640 cell medium containing 10% fetal bovine serum. 14-D-Valine-TPL with different concentrations was added, and after being uniformly mixed, the plate was placed in a carbon dioxide (5% CO2) cell incubator, and incubated at 37° C. for 72 hours. The concentration of live cells was then determined using the MTT assay. In this experiment, the cell viability in the control group (without the compound treatment) was set to be 100%, and the cell viability (%) after the action of the compound the half maximal growth inhibitory concentration of leukemia cells at 72 hours (IC50 value at 72 hours) and the therapeutic window index were calculated. Therapeutic window index=IC50 value of normal blood cells/IC50 value of leukemia cells. […] A larger therapeutic window indicates a better selectivity of the compound for tumor cells.
(§2) 5000 well-grown leukemia cells were taken and seeded into wells of a 96-well cell culture plate. The medium was 1640 cell medium containing 10% fetal bovine serum. 14-D-Valine-TPL with different concentrations was added, and after being uniformly mixed, the plate was placed in a carbon dioxide (5% CO2) cell incubator, and incubated at 37° C. for 72 hours. The concentration of live cells was then determined using the MTT assay. In this experiment, the cell viability in the control group (without the compound treatment) was set to be 100%, and the cell viability (%) after the action of the compound and the half maximal growth inhibitory concentration of leukemia cells at 72 hours (IC50 value at 72 hours) were calculated.
as §2, with “well-grown lymphocytes” for “well-grown leukemia cells”

For test [1], the system named is human acute monocytic leukemia THP-1 cells. As to the kind of experiment: THP-1 subcutaneous xenograft in NOD/SCID mice. It counts as in vivo. The following applies: for Tumor weight: THP-1, individual mice, end of experiment. The procedure:
7-week old female NOD/SCID mice were taken and inoculated subcutaneously with 1×10^7 cells (0.2 ml) per mouse in axilla, with human acute myelogenous leukemia KG-1a cells on the left and human acute monocytic leukemia THP-1 cells on the right. When tumors grew to a tumor size of around 0.5 cm, the mice were randomized into groups with 3 mice each. An equivalent amount of PBS was used for the control group, and the 14-D-Valine-TPL group was divided into two groups with 0.2 mg/kg body weight and 0.4 mg/kg body weight: intragastric administration 2 times a day (one at 8 a.m. and one at 4 p.m.) for consecutive 14 days of treatment. An observation was made for total 30 days, during which the conditions of the mice such as tumor size, weight, activity, diet, and the like were measured. At the end of the experiment, the mice were sacrificed, tumor tissues were taken and the tumors were weighed, and major organs and tissues of the mice such as liver, spleen, heart, lung, large intestine, small intestine, and the like were examined.

The next test addresses T1, XPB (Homo sapiens, UniProt P19447).
T1 construct: endogenous in cells; host or cells: THP-1
Kind of test: Immunoblot of XPB level in THP-1 cells, 48 h. It counts as cell-based. The following applies: 160 nM. The procedure: Well-grown leukemia cells were taken and seeded into wells of a 6-well cell culture plate, with a density of 1×10^6/ml. The medium was 1640 cell medium containing 10% fetal bovine serum. 14-D-Valine-TPL with different concentrations was added, and after being uniformly mixed, the plate was placed in a carbon dioxide (5% CO2) cell incubator, and incubated at 37° C. for 48 hours. Cellular proteins were then extracted, and the immunoblot technique was used to detect the expression levels of XPB and Pol II.

In a further test the test system is normal human blood cells. As to the kind of experiment: MTT assay, normal human blood cells, 72 h. It counts as cell-based. The settings on record: Normal Blood Cell. The method, then: Leukemia cell strains: Sup-B15 (Ph+acute lymphoblastic leukemia), CEM (acute lymphoblastic leukemia, ALL), and Molt-4 (acute lymphoblastic leukemia, ALL). Normal blood cell samples: peripheral blood from healthy volunteers. • Primary reagent: 14-D-Valine-TPL of the invention. Primary instruments: cell incubator and microplate reader. (2) Experimental Method
as §1

Values joined by “and” are separate entries in the source; they are usually repeats but may differ in a detail not shown here. Equal entries are not always repeated.

T1 sequence (P19447 whole entry): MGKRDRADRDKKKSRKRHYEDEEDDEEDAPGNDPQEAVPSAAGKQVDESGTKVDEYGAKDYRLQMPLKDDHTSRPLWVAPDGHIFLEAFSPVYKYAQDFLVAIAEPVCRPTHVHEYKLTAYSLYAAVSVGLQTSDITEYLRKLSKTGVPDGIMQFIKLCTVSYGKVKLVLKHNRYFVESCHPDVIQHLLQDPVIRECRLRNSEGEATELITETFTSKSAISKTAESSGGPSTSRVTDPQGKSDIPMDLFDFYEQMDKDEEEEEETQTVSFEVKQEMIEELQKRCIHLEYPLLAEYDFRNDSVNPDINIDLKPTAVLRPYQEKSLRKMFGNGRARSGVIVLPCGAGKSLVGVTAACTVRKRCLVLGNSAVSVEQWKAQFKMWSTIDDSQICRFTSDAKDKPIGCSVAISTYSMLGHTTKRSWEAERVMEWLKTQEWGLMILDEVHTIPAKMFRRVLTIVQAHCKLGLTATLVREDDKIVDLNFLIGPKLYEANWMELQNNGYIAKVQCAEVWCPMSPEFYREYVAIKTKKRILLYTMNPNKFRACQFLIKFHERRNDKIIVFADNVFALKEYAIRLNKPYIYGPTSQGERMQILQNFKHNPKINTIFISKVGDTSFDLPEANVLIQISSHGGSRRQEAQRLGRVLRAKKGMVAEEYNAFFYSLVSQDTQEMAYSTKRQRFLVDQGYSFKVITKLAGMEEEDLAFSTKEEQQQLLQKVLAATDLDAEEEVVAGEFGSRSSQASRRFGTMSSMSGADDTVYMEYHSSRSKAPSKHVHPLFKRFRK

In general, IC50 refers to the concentration that inhibits the measured activity by half. Higher therefore signals a need for much substance. For the compound `CC(C)[C@@H](N)C(=O)O[C@@H]1[C@@]2(C(C)C)O[C@H]2[C@@H]2O[C@]23[C@]12O[C@H]2C[C@H]1C2=C(CC[C@@]13C)C(=O)OC2` [14-D-Valine-TPL, 14-Dextro-Valine-Triptolide], the IC50 is 0.0207 µM with Sup-B15 (Homo sapiens, SUP-B15, 72 h); 0.201 µM in the test on normal human blood cells (Homo sapiens, 72 h, Overall, MTT); 0.203 µM with normal human blood cells (Homo sapiens, 72 h, individual healthy volunteers No1-No9, MTT); 0.199 µM and 0.206 µM and 0.2 µM and 0.214 µM and 0.19 µM and 0.204 µM and 0.185 µM and 0.211 µM in the test on normal human blood cells (individual healthy volunteers No1-No9, MTT). The compound further returned a Therapeutic window in the test on Sup-B15 (IC50 of normal blood cells/IC50 of Sup-B15) of 9.73. Also, the Tumor weight in test [1] (trifluoroacetate 0.2 mg/kg intragastric 2 times a day, 14 days, listed as DV) was 0 g (3×) and 0.21 g and 0.06 g and 0.28 g; in test [1] (trifluoroacetate 0.4 mg/kg intragastric 2 times a day, 14 days) it was 0 g. Moreover, the “growth of THP-1 in mice in vivo (in words)” value in test [1] (THP-1 xenograft, intragastric 2 times a day, 14 days, dose-dependent effect) is “significantly inhibit the growth”. Also, the “regression of THP-1 xenograft tumors” value in test [1] (dose of 0.4 mg per kilogram of the body weight) is on record as “complete regression”. The “level of XPB (immunoblot)” value at XPB is listed as “significantly inhibited”.

(Values after patent publication US10238623B2, “C14-hydroxyl esterified amino acid derivative of triptolide, and preparation method and use thereof” (HANGZHOU WEBEN PHARMACEUTICALS INC, priority 2015, dated 2019).)
